Assay results reported in ChEMBL document CHEMBL1136491, “1-aryl-6,7-methylenedioxy-3H-quinazolin-4-ones as anticonvulsant agents” (Bioorg Med Chem Lett, 2003).

How the values were obtained:
[1] = tested on: Mus musculus; assay: Anticonvulsant activity against audiogenic clonus seizure 30 min after intraperitoneal administration (3.3-200 umol/kg) in DBA/2 mice; format: functional; details: ip, 0.5 h
[2] = target: Glutamate receptor ionotropic, AMPA (Rattus norvegicus, UniProt P19490+P19491+P19492+P19493); assay: Ability to displace [3H]CP-526427 (3 nM) from binding site of the Ionotropic glutamate receptor AMPA in rat forebrain membrane; format: cell membranes
[3] = tested on: Mus musculus; assay: Anticonvulsant activity against audiogenic tonus seizure 30 min after intraperitoneal administration (3.3-200 umol/kg) in DBA/2 mice; format: functional; details: ip, 0.5 h
[4] = tested on: Mus musculus; assay: Anticonvulsant activity against audiogenic clonus seizure 15 min after intraperitoneal administration (3.3-200 umol/kg) in DBA/2 mice; format: functional; details: ip, 0.25 h

SMILES	IC50 [2] [µM]	ED50 [1] [µmol/kg]	ED50 [3] [µmol/kg]	ED50 [4] [µmol/kg]
Oc1nc(-c2ccc(Br)cc2)nc2cc3c(cc12)OCO3	–	68.3	36.6	–
Nc1ccc(-c2nc(S)c3cc4c(cc3n2)OCO4)cc1	–	37.8	17.9	79.4
O=C1Cc2cc3c(cc2C(c2ccc(F)cc2)=NN1)OCO3	–	89.8	63.8	–

The next lines start with results.

IC50 [2] [µM]	SMILES	ED50 [1] [µmol/kg]	ED50 [3] [µmol/kg]	ED50 [4] [µmol/kg]
> 100	Oc1nc(-c2ccc(F)cc2)nc2cc3c(cc12)OCO3	32.7	27.8	–
> 100	Oc1nc(-c2ccc(Cl)cc2)nc2cc3c(cc12)OCO3	36.5	21.6	–
> 100	Nc1ccc(-c2nc(O)c3cc4c(cc3n2)OCO4)cc1	27.8	17.7	–
> 100	Oc1nc(-c2ccccc2)nc2cc3c(cc12)OCO3	59.5	46.1	–
> 100	Nc1ccc(-c2nnc(O)c3cc4c(cc23)OCO4)cc1	–	–	–
